# Reference: patent publication US8846947B2, “Benzimidazoles and related analogs as sirtuin modulators” (GlaxoSmithKline LLC, priority 2008, dated 2014)
# Biological target: T1, SIRT1 (Homo sapiens, UniProt Q96EB6)
# T1 sequence (Q96EB6 1-747): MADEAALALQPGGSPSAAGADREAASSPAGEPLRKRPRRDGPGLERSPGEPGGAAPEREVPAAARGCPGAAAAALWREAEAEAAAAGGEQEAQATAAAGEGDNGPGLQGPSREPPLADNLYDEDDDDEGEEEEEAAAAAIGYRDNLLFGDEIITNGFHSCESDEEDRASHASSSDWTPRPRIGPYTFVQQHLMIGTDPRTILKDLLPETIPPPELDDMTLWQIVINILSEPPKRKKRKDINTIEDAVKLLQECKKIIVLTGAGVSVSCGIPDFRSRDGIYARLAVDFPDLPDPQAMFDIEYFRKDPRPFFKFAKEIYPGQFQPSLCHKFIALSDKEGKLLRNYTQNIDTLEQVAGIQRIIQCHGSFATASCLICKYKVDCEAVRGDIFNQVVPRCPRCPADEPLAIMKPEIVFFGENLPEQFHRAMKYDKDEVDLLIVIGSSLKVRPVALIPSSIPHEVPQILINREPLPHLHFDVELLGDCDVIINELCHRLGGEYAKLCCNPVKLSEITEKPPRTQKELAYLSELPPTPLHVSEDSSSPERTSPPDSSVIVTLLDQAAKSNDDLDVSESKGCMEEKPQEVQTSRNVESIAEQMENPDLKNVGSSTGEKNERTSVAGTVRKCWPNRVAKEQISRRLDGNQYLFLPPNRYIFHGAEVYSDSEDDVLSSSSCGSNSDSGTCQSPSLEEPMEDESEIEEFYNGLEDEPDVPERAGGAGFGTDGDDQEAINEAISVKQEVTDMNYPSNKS
# Experiment: Mass spectrometry based SIRT1 deacetylase activation assay (acetylated p53-derived peptide substrate)
# Format: biochemical
# Conditions: 0.5 μM peptide substrate, 120 μM βNAD+, 10 nM SIRT1, 25 minutes at 25° C.
Compound,EC1.5,Fold Act. (percent maximum fold activation)
COCCN1CCN(c2cccc(-c3nc4c(C(=O)Nc5nccs5)cccc4[nH]3)c2)CC1 [Compound 710],A (EC1.5<1.0 uM),A (Fold activation >200%)
CC1(C)CN(CCOc2ccccc2-c2nc3c(C(=O)Nc4nccs4)cccc3[nH]2)CCO1 [Compound 711],A (EC1.5<1.0 uM),A (Fold activation >200%)
CC1(C)CN(CCOc2ccccc2-c2nc3c(C(=O)Nc4ccccn4)cccc3[nH]2)CCO1 [Compound 712],B (EC1.5 1-25 uM),B (Fold Activation <200%)
O=C(Nc1cccc(OC[C@H](O)CO)c1)c1cncc2[nH]c(-c3ccccc3C(F)F)nc12 [Compound 713],A (EC1.5<1.0 uM),A (Fold activation >200%)
O=C(Nc1cccc(OC[C@@H](O)CO)c1)c1cncc2[nH]c(-c3ccccc3C(F)F)nc12 [Compound 714],A (EC1.5<1.0 uM),A (Fold activation >200%)
O=C(Nc1cccc(OC[C@H](O)CO)c1)c1cncc2[nH]c(-c3ccc(Cl)cc3C(F)F)nc12 [Compound 715],A (EC1.5<1.0 uM),A (Fold activation >200%)
O=C(Nc1cccc(OC[C@@H](O)CO)c1)c1cncc2[nH]c(-c3ccc(Cl)cc3C(F)F)nc12 [Compound 716],A (EC1.5<1.0 uM),A (Fold activation >200%)
O=C(Nc1cccc(OC[C@H](O)CO)c1)c1cccc2[nH]c(-c3ccc(F)cc3C(F)F)nc12 [Compound 717],A (EC1.5<1.0 uM),A (Fold activation >200%)
O=C(Nc1cccc(OC[C@@H](O)CO)c1)c1cccc2[nH]c(-c3ccc(F)cc3C(F)F)nc12 [Compound 718],A (EC1.5<1.0 uM),A (Fold activation >200%)
O=C(Nc1cccc(OC[C@H](O)CO)c1)c1cccc2[nH]c(-c3cc(F)ccc3C(F)F)nc12 [Compound 719],A (EC1.5<1.0 uM),A (Fold activation >200%)
O=C(Nc1cccc(OC[C@@H](O)CO)c1)c1cccc2[nH]c(-c3cc(F)ccc3C(F)F)nc12 [Compound 720],A (EC1.5<1.0 uM),A (Fold activation >200%)
O=C(Nc1cccc(OC[C@H](O)CO)c1)c1cccc2[nH]c(-c3ccccc3C(F)F)nc12 [Compound 721],A (EC1.5<1.0 uM),A (Fold activation >200%)
O=C(Nc1nccs1)c1cccc2[nH]c(-c3ccc(OCCN4CCOCC4)cc3C(F)F)nc12 [Compound 722],A (EC1.5<1.0 uM),A (Fold activation >200%)
"O=C(Nc1ccccn1)c1cccc2[nH]c(-c3ccc(OCCN4CCOCC4)cc3C(F)F)nc12 [Compound 723, 2-(2-(difluoromethyl)-4-(2-morpholinoethoxy)phenyl)-N-(pyridin-2-yl)-1H-benzo[d]imidazole-7-carboxamide]",A (EC1.5<1.0 uM),A (Fold activation >200%)
O=C(Nc1cccnc1)c1cccc2[nH]c(-c3ccc(OCCN4CCOCC4)cc3C(F)F)nc12 [Compound 724],A (EC1.5<1.0 uM),A (Fold activation >200%)
"O=C(Nc1cccc(OC[C@@H](O)CO)c1)c1cccc2[nH]c(-c3ccccc3C(F)(F)F)nc12 [Compound 725, (S)-N-(3-(2,3-dihydroxypropoxy)phenyl)-2-(2-(trifluoromethyl)phenyl)-1H-benzo[d]imidazole-4-carboxamide]",A (EC1.5<1.0 uM),A (Fold activation >200%)
O=C(Nc1ccccc1OCC(O)CO)c1cccc2[nH]c(-c3ccc(Cl)cc3C(F)(F)F)nc12 (stereo not shown) [Compound 726],B (EC1.5 1-25 uM),A (Fold activation >200%)
O=C(Nc1ccccc1OCC(O)CO)c1cccc2[nH]c(-c3ccc(F)cc3C(F)(F)F)nc12 (stereo not shown) [Compound 727],B (EC1.5 1-25 uM),A (Fold activation >200%)
O=C(Nc1ccc(CN2CCNCC2)nc1)c1cccc2[nH]c(-c3ccccc3C(F)(F)F)nc12 [Compound 728],A (EC1.5<1.0 uM),A (Fold activation >200%)
O=C(Nc1ccccc1OCC(O)CO)c1cccc2[nH]c(-c3ccccc3C(F)(F)F)nc12 (stereo not shown) [Compound 729],B (EC1.5 1-25 uM),A (Fold activation >200%)
O=C(Nc1ccccc1OCC(O)CO)c1cccc2[nH]c(-c3cc(F)ccc3C(F)(F)F)nc12 (stereo not shown) [Compound 730],B (EC1.5 1-25 uM),A (Fold activation >200%)

Compound,EC1.5,Fold Act. (percent maximum fold activation)
O=C(Nc1nccs1)c1cccc2[nH]c(-c3ccc(N4CC[C@H](F)C4)cc3C(F)F)nc12 [Compound 731],A (EC1.5<1.0 uM),A (Fold activation >200%)
Cc1cnc(NC(=O)c2cccc3[nH]c(-c4ccc(N5CC[C@H](F)C5)cc4C(F)F)nc23)s1 [Compound 732],A (EC1.5<1.0 uM),A (Fold activation >200%)
O=C(Nc1ccccn1)c1cccc2[nH]c(-c3ccc(N4CC[C@H](F)C4)cc3C(F)F)nc12 [Compound 733],A (EC1.5<1.0 uM),A (Fold activation >200%)
O=C(Nc1nccs1)c1cc(N2CCOCC2)cc2[nH]c(-c3ccccc3C(F)F)nc12 [Compound 734],A (EC1.5<1.0 uM),A (Fold activation >200%)
O=C(Nc1cccnc1)c1cc(N2CCOCC2)cc2[nH]c(-c3ccccc3C(F)F)nc12 [Compound 735],A (EC1.5<1.0 uM),A (Fold activation >200%)
O=C(Nc1ccccn1)c1cc(N2CCOCC2)cc2[nH]c(-c3ccccc3C(F)F)nc12 [Compound 736],A (EC1.5<1.0 uM),A (Fold activation >200%)
O=C(Nc1cccnn1)c1cc(N2CCOCC2)cc2[nH]c(-c3ccccc3C(F)F)nc12 [Compound 737],A (EC1.5<1.0 uM),A (Fold activation >200%)
O=C(Nc1cccc(OC[C@@H](O)CO)c1)c1cncc2[nH]c(-c3ccc(Cl)cc3C(F)(F)F)nc12 [Compound 738],A (EC1.5<1.0 uM),A (Fold activation >200%)
O=C(Nc1cccc(OC[C@H](O)CO)c1)c1cncc2[nH]c(-c3ccc(Cl)cc3C(F)(F)F)nc12 [Compound 739],A (EC1.5<1.0 uM),A (Fold activation >200%)
O=C(Nc1cccc(OCC(O)CO)c1)c1cccc2[nH]c(-c3ccc(Cl)cc3C(F)(F)F)nc12 (stereo not shown) [Compound 740],A (EC1.5<1.0 uM),A (Fold activation >200%)
O=C(Nc1cccc(OCC(O)CO)c1)c1cccc2[nH]c(-c3cc(F)ccc3C(F)(F)F)nc12 (stereo not shown) [Compound 741],A (EC1.5<1.0 uM),A (Fold activation >200%)
O=C(Nc1nccs1)c1cccc2[nH]c(-c3ccc(OC[C@H](O)CO)cc3C(F)(F)F)nc12 [Compound 742],A (EC1.5<1.0 uM),A (Fold activation >200%)
Cc1cnc(NC(=O)c2cccc3[nH]c(-c4ccc(OC[C@H](O)CO)cc4C(F)(F)F)nc23)s1 [Compound 743],A (EC1.5<1.0 uM),A (Fold activation >200%)
O=C(Nc1ccccn1)c1cccc2[nH]c(-c3ccc(OC[C@H](O)CO)cc3C(F)(F)F)nc12 [Compound 744],A (EC1.5<1.0 uM),A (Fold activation >200%)
O=C(Nc1nccs1)c1cccc2[nH]c(-c3ccc(OC[C@@H](O)CO)cc3C(F)(F)F)nc12 [Compound 745],A (EC1.5<1.0 uM),A (Fold activation >200%)
Cc1cnc(NC(=O)c2cccc3[nH]c(-c4ccc(OC[C@@H](O)CO)cc4C(F)(F)F)nc23)s1 [Compound 746],A (EC1.5<1.0 uM),A (Fold activation >200%)
O=C(Nc1cccc(OC[C@@H](O)CO)c1)c1cncc2[nH]c(-c3ccccc3C(F)(F)F)nc12 [Compound 747],A (EC1.5<1.0 uM),A (Fold activation >200%)
O=C(Nc1cccc(OC[C@H](O)CO)c1)c1cncc2[nH]c(-c3ccccc3C(F)(F)F)nc12 [Compound 748],A (EC1.5<1.0 uM),A (Fold activation >200%)
O=C(Nc1nccs1)c1cc(N2CCOCC2)cc2[nH]c(-c3ccc(F)cc3C(F)F)nc12 [Compound 749],A (EC1.5<1.0 uM),A (Fold activation >200%)
O=C(Nc1ccccn1)c1cc(N2CCOCC2)cc2[nH]c(-c3ccc(F)cc3C(F)F)nc12 [Compound 750],A (EC1.5<1.0 uM),A (Fold activation >200%)
